Results on 16 molecules are retold here after patent US12187713B2, “Immunomodulators, compositions and methods thereof” (Betta Pharmaceuticals Co., Ltd, priority 2019, dated 2025).

The IC50 is the midpoint of a concentration-inhibition curve. Read a low IC50 as inhibition by little substance.

Sequence of PD-1/PD-L1 (Q9NZQ7 19-238): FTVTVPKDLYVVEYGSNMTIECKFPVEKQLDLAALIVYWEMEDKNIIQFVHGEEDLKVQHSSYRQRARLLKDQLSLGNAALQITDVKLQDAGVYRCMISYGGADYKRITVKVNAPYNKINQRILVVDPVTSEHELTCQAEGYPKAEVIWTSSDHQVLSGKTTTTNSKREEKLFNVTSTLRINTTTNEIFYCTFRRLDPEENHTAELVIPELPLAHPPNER

The first assay has as its target PD-1/PD-L1 (Homo sapiens (Human), UniProt Q9NZQ7). In words: PD-1/PD-L1 Binding Assay (Alphascreen). The note with it: numeric values. In a few lines:
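PD-1/PD-L1 binding detected by anti-6×His acceptor and streptavidin donor beads after 120 min in the dark at 25 °C. Beforehand, the two proteins were incubated 15 min at 25 °C with inhibitor at 0.015–300 nM (1% DMSO). IC50 comes from a log concentration–response curve.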
`Cc1c(-c2nc3cc(CN4CCC[C@H]4C(=O)O)c(OC(F)F)cc3o2)cccc1-c1cccc(NC(=O)c2ccc(CNCCO)cn2)c1Cl` [Example 302, ((2-(2′-chloro-3′-(5-(((2-hydroxyethyl)amino)methyl)picolinamido)-2-methyl-[1,1′-biphenyl]-3-yl)-6-(difluoromethoxy)benzo[d]oxazol-5-yl)methyl)-L-proline] returned an IC50 of 0.29 nM. `Cc1c(-c2ccc(CN3CCC(C)C3)c(F)c2)cccc1-c1cccc(-c2nc3cc(CN4CCC[C@H]4C(=O)O)c(OC(F)F)cc3o2)c1C` (stereo partly drawn) [Example 238, ((6-(difluoromethoxy)-2-(3″-fluoro-2,2′-dimethyl-4″-((3-methylpyrrolidin-1-yl)methyl)-[1,1′:3′,1″-terphenyl]-3-yl)benzo[d]oxazol-5-yl)methyl)-L-proline] gave an IC50 of 2.3 nM. The molecule `Cc1c(-c2nc3cc(CN4CCC4(C)O)ccc3o2)cccc1-c1cccc(-c2nc3cc(CN4CCC[C@H]4C(=O)O)c(OC(F)F)cc3o2)c1C` (stereo partly drawn) [Example 104, ((6-(difluoromethoxy)-2-(3′-(5-((2-hydroxy-2-methylazetidin-1-yl)methyl)benzo[d]oxazol-2-yl)-2,2′-dimethyl-[1,1′-biphenyl]-3-yl)benzo[d]oxazol-5-yl)methyl)-L-proline] registered an IC50 of 0.19 nM. The same measure, in the same setting: the result for `Cc1c(-c2nc3cc(CN)c(OC(F)F)cc3o2)cccc1-c1cccc(-c2nc3cc(CN4CCC[C@H]4C(=O)O)c(OC(F)F)cc3o2)c1C` [Example 24, ((2-(3′-(5-(aminomethyl)-6-(difluoromethoxy)benzo[d]oxazol-2-yl)-2,2′-dimethyl-[1,1′-biphenyl]-3-yl)-6-(difluoromethoxy)benzo[d]oxazol-5-yl)methyl)-L-proline] reads 0.98 nM; that for `Cc1c(-c2nc3cc(CN4CCC(C)(CO)C4)c(OC(F)F)cc3o2)cccc1-c1cccc(-c2nc3cc(CN4CCC[C@H]4C(=O)O)c(OC(F)F)cc3o2)c1C` (stereo partly drawn) [Example 77, ((6-(difluoromethoxy)-2-(3′-(6-(difluoromethoxy)-5-((3-(hydroxymethyl)-3-methylpyrrolidin-1-yl)methyl)benzo[d]oxazol-2-yl)-2,2′-dimethyl-[1,1′-biphenyl]-3-yl)benzo[d]oxazol-5-yl)methyl)-L-proline], 1.2 nM; that for `Cc1c(NC(=O)c2cn3c(n2)CNCC3)cccc1-c1cccc(-c2nc3cc(CN4CCC[C@H]4C(=O)O)c(OC(F)F)cc3o2)c1C` [Example 303, ((6-(difluoromethoxy)-2-(2,2′-dimethyl-3′-(5,6,7,8-tetrahydroimidazo[1,2-a]pyrazine-2-carboxamido)-[1,1′-biphenyl]-3-yl)benzo[d]oxazol-5-yl)methyl)-L-proline], 1.6 nM. The same measure, in the same setting: the result for `CCN(CC)C1CN(Cc2cc3nc(-c4cccc(-c5cccc(-c6nc7cc(CN8CCC[C@H]8C(=O)O)c(OC(F)F)cc7o6)c5C)c4C)oc3cc2OC(F)F)C1` [Example 68, ((2-(3′-(5-((3-(diethylamino)azetidin-1-yl)methyl)-6-(difluoromethoxy)benzo[d]oxazol-2-yl)-2,2′-dimethyl-[1,1′-biphenyl]-3-yl)-6-(difluoromethoxy)benzo[d]oxazol-5-yl)methyl)-L-proline] reads 2.4 nM.

Staying with this assay, now noted: range symbols.
`Cc1c(-c2nc3cc(CN4CCC[C@H]4C(=O)O)c(OC(F)F)cc3o2)cccc1-c1cccc(-c2ccc(CN3CCCC3)cc2F)c1Cl` [Example 222, ((2-(2′-chloro-2″-fluoro-2-methyl-4″- (pyrrolidin-1-ylmethyl)-[1,1′:3′,1″-terphenyl]-3-yl)-6-(difluoromethoxy)benzo[d]oxazol-5-yl)methyl)proline] gave a 50% inhibitory concentration (IC50) of 0.1 to 5 nM. On the same count and under the same terms, the result for `Cc1c(-c2nc3cc(CN4CCC[C@H]4C(=O)O)c(OC(F)F)cc3o2)cccc1-c1cccc(-c2nc3ccc(CN4CC(C)(C)C4)cc3o2)c1Cl` [Example 110, ((2-(2′-chloro-3′-(6-((3,3-dimethylazetidin-1-yl)methyl)benzo[d]oxazol-2-yl)-2-methyl-[1,1′-biphenyl]-3-yl)-6-(difluoromethoxy)benzo[d]oxazol-5-yl)methyl)-L-proline] reads 0.1 to 5 nM. Still for that read-out and setting: the result for `Cc1c(-c2nc3cc(CN4CCC[C@H]4C(=O)O)c(OC(F)F)cc3o2)cccc1-c1cccc(-c2ccc(CN3CCCC3)cc2F)c1C` [Example 220, ((6-(difluoromethoxy)-2-(2″-fluoro-2,2′-dimethyl-4″-(pyrrolidin-1-ylmethyl)-[1,1′:3′,1″- terphenyl]-3-yl)benzo[d]oxazol-5-yl)methyl)proline] reads 0.1 to 5 nM. Still for that read-out and setting: as for `CNCc1cc2nc(-c3cccc(-c4cccc(-c5nc6cc(CN7CCC[C@H]7C(=O)O)c(OC(F)F)cc6o5)c4C)c3C)oc2cc1OCc1ccc(S(C)(=O)=O)cc1` [Example 125, ((6-(difluoromethoxy)-2-(2,2′-dimethyl-3′-(5-((methylamino)methyl)-6-((4-(methylsulfonyl)benzyl)oxy)benzo[d]oxazol-2-yl)-[1,1′-biphenyl]-3-yl)benzo[d]oxazol-5-yl)methyl)-L-proline], the figure is 0.1 to 5 nM.

Consider `Cc1c(-c2nc3c(o2)CN(C)CC3)cccc1-c1cccc(-c2nc3cc(CN4CCC[C@H]4C(=O)O)c(OC(F)F)cc3o2)c1C` [Example 188, ((6-(difluoromethoxy)-2-(2,2′-dimethyl-3′-(5-methyl-4,5,6,7-tetrahydrooxazolo[5,4-c]pyridin-2-yl)-[1,1′-biphenyl]-3-yl)benzo[d]oxazol-5-yl)methyl)-L-proline], for which the IC50 is 0.1 to 5 nM. Same read-out and setting: as for `Cc1c(-c2nc3cc(CN4CCC[C@H]4C(=O)O)c(OC(F)F)cc3o2)cccc1-c1cccc(-c2nc3cc(CN4CCC4(C)N)c(OC(F)F)cc3o2)c1C` (stereo partly drawn) [Example 40, ((2-(3′-(5-((2-amino-2-methylazetidin-1-yl)methyl)-6-(difluoromethoxy)benzo[d]oxazol-2-yl)-2,2′-dimethyl-[1,1′-biphenyl]-3-yl)-6-(difluoromethoxy)benzo[d]oxazol-5-yl)methyl)-L-proline], the figure is 0.1 to 5 nM; as for `Cc1c(-c2nc3cc(CN4CCC[C@H]4C(=O)O)c(OC(F)F)cc3o2)cccc1-c1cccc(-c2nc3cc(CN4CC(C)C(N(C)C)C4)cc(C#N)c3o2)c1C` (stereo partly drawn) [Example 158, ((2-(3′-(7-cyano-5-((3-(dimethylamino)-4-methylpyrrolidin-1-yl)methyl)benzo[d]oxazol-2-yl)-2,2′-dimethyl-[1,1′-biphenyl]-3-yl)-6-(difluoromethoxy)benzo[d]oxazol-5-yl)methyl)-L-proline], 0.1 to 5 nM.

For the molecule `Cc1c(-c2ccc(CN3CCCC3)cn2)cccc1-c1cccc(-c2nc3cc(CN4CCC[C@H]4C(=O)O)c(OC(F)F)cc3o2)c1C` [Example 264, ((6-(difluoromethoxy)-2-(2,2′-dimethyl-3′-(5-(pyrrolidin-1-ylmethyl)pyridin-2-yl)-[1,1′-biphenyl]-3-yl)benzo[d]oxazol-5-yl)methyl)-L-proline], the IC50 lay within 0.1 to 5 nM.

On to `Cc1c(-c2nc3cc(CN4CCC[C@H]4C(=O)O)c(OC(F)F)cc3o2)cccc1-c1cccc(-c2nc3cc(CN4CCC4(C)O)c(OC(F)F)cc3o2)c1C` (stereo partly drawn) [Example 37, ((6-(difluoromethoxy)-2-(3′-(6-(difluoromethoxy)-5-((2-hydroxy-2-methylazetidin-1-yl)methyl)benzo[d]oxazol-2-yl)-2,2′-dimethyl-[1,1′-biphenyl]-3-yl)benzo[d]oxazol-5-yl)methyl)-L-proline], for which the half-maximal inhibitory concentration (IC50) was in the range of 0.1 to 5 nM.
